# The supplement of paper PMC10307832
# Key:
# Test in all cases: relative viability (nuclei count vs DMSO), 5 days (fraction); higher = more cells survive
# [1] = system: COR-L23
# Method in brief: (§1)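 Values are medians from duplicate plates. Each reflects relative viability, defined as the nuclei count of treated wells over that of vehicle wells. Lung cancer cell lines in 1536-well plates were pin-tool dosed one day after seeding with one drug alone or with a fixed anchor-drug dose plus five library-drug doses (not always all listed) in √10 steps, then fixed, stained and imaged at 4× after 5 days.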
# [2] = system: EKVX
# Method in brief: as §1
# [3] = system: EMC-BAC-2
# Method in brief: as §1
# [4] = system: H3255
# Method in brief: as §1
# [5] = system: HARA
# Method in brief: as §1
# [6] = system: HCC-15
# Method in brief: as §1
# [7] = system: HCC-827
# Method in brief: as §1
# [8] = system: LC-2-ad
# Method in brief: as §1
# [9] = system: LCLC-97TM1
# Method in brief: as §1
# [10] = system: NCI-H1355
# Method in brief: as §1
# [11] = system: NCI-H1755
# Method in brief: as §1
# [12] = system: NCI-H1792
# Method in brief: as §1
# [13] = system: NCI-H1915
# Method in brief: as §1
# [14] = system: NCI-H2126
# Method in brief: as §1
# [15] = system: NCI-H23
# Method in brief: as §1
# [16] = system: NCI-H2405
# Method in brief: as §1
# [17] = system: NCI-H3122
# Method in brief: as §1
# [18] = system: NCI-H520
# Method in brief: as §1
# [19] = system: NCI-H522
# Method in brief: as §1
# [20] = system: NCI-H661
# Method in brief: as §1
# [21] = system: NCI-H838
# Method in brief: as §1
# [22] = system: RERF-LC-KJ
# Method in brief: as §1
# [23] = system: SW 1573
# Method in brief: as §1
# [24] = system: SW 900
# Method in brief: as §1
# [25] = system: UMC-11
# Method in brief: as §1
smiles,measurement,setting,value
Nc1cccc2c1CN(C1CCC(=O)NC1=O)C2=O (stereo unspecified) [Lenalidomide] + CC(=O)c1c(C)c2cnc(Nc3ccc(N4CCNCC4)cn3)nc2n(C2CCCC2)c1=O [Palbociclib] (partner 0.5 µM),relative viability,[1]; first compound 0.253 µM,0.342
same,relative viability,[1]; first compound 0.8 µM,0.34
same,relative viability,[1]; first compound 2.53 µM,0.308
same,relative viability,[1]; first compound 8 µM,0.348
same,relative viability,[2]; first compound 0.253 µM,0.415
same,relative viability,[2]; first compound 0.8 µM,0.309
same,relative viability,[2]; first compound 2.53 µM,0.355
same,relative viability,[2]; first compound 8 µM,0.372
same,relative viability,[3]; first compound 0.253 µM,0.503
same,relative viability,[3]; first compound 0.8 µM,0.473
same,relative viability,[3]; first compound 2.53 µM,0.52
same,relative viability,[3]; first compound 8 µM,0.448
same,relative viability,[4]; first compound 0.253 µM,0.312
same,relative viability,[4]; first compound 0.8 µM,0.302
same,relative viability,[4]; first compound 2.53 µM,0.314
same,relative viability,[4]; first compound 8 µM,0.314
same,relative viability,[5]; first compound 0.253 µM,0.253
same,relative viability,[5]; first compound 2.53 µM,0.293
same,relative viability,[5]; first compound 8 µM,0.253
same,relative viability,[6]; first compound 0.253 µM,0.685
same,relative viability,[6]; first compound 0.8 µM,0.683
same,relative viability,[6]; first compound 2.53 µM,0.904
same,relative viability,[6]; first compound 8 µM,0.708
same,relative viability,[7]; first compound 0.253 µM,0.506
same,relative viability,[7]; first compound 0.8 µM,0.432
same,relative viability,[7]; first compound 2.53 µM,0.538
same,relative viability,[7]; first compound 8 µM,0.489
same,relative viability,[8]; first compound 0.253 µM,0.549
same,relative viability,[8]; first compound 0.8 µM,0.551
same,relative viability,[8]; first compound 2.53 µM,0.533
same,relative viability,[8]; first compound 8 µM,0.531
same,relative viability,[9]; first compound 0.253 µM,0.229
same,relative viability,[9]; first compound 0.8 µM,0.185
same,relative viability,[9]; first compound 2.53 µM,0.209
same,relative viability,[9]; first compound 8 µM,0.212
same,relative viability,[10]; first compound 0.253 µM,0.397
same,relative viability,[10]; first compound 0.8 µM,0.372
same,relative viability,[10]; first compound 2.53 µM,0.413
same,relative viability,[10]; first compound 8 µM,0.286
same,relative viability,[11]; first compound 0.253 µM,0.451
same,relative viability,[11]; first compound 0.8 µM,0.434
same,relative viability,[11]; first compound 2.53 µM,0.429
same,relative viability,[11]; first compound 8 µM,0.441
same,relative viability,[12]; first compound 0.253 µM,0.656
same,relative viability,[12]; first compound 0.8 µM,0.754
same,relative viability,[12]; first compound 2.53 µM,0.745
same,relative viability,[12]; first compound 8 µM,0.675
same,relative viability,[13]; first compound 0.253 µM,0.549
same,relative viability,[13]; first compound 0.8 µM,0.554
same,relative viability,[13]; first compound 2.53 µM,0.578
same,relative viability,[13]; first compound 8 µM,0.486
same,relative viability,[14]; first compound 0.253 µM,0.359
same,relative viability,[14]; first compound 0.8 µM,0.383
same,relative viability,[14]; first compound 2.53 µM,0.328
same,relative viability,[14]; first compound 8 µM,0.332
same,relative viability,[15]; first compound 0.253 µM,0.534
same,relative viability,[15]; first compound 2.53 µM,0.517
same,relative viability,[15]; first compound 8 µM,0.442
same,relative viability,[16]; first compound 0.253 µM,0.513
same,relative viability,[16]; first compound 0.8 µM,0.529
same,relative viability,[16]; first compound 2.53 µM,0.524
same,relative viability,[16]; first compound 8 µM,0.45
same,relative viability,[17]; first compound 0.253 µM,0.178
same,relative viability,[17]; first compound 0.8 µM,0.213
same,relative viability,[17]; first compound 2.53 µM,0.232
same,relative viability,[17]; first compound 8 µM,0.195
same,relative viability,[18]; first compound 0.253 µM,0.225
same,relative viability,[18]; first compound 0.8 µM,0.216
same,relative viability,[18]; first compound 2.53 µM,0.236
same,relative viability,[18]; first compound 8 µM,0.2
same,relative viability,[19]; first compound 0.253 µM,0.91
same,relative viability,[19]; first compound 0.8 µM,1
same,relative viability,[19]; first compound 2.53 µM,1.19
same,relative viability,[19]; first compound 8 µM,0.716
same,relative viability,[20]; first compound 0.253 µM,0.386
same,relative viability,[20]; first compound 0.8 µM,0.377
same,relative viability,[20]; first compound 2.53 µM,0.348
same,relative viability,[20]; first compound 8 µM,0.357
same,relative viability,[21]; first compound 0.253 µM,0.172
same,relative viability,[21]; first compound 0.8 µM,0.19
same,relative viability,[21]; first compound 2.53 µM,0.256
same,relative viability,[21]; first compound 8 µM,0.18
same,relative viability,[22]; first compound 0.253 µM,1.09
same,relative viability,[22]; first compound 0.8 µM,1.06
same,relative viability,[22]; first compound 2.53 µM,1.21
same,relative viability,[22]; first compound 8 µM,1.03
same,relative viability,[23]; first compound 0.253 µM,0.239
same,relative viability,[23]; first compound 0.8 µM,0.384
same,relative viability,[23]; first compound 2.53 µM,0.399
same,relative viability,[23]; first compound 8 µM,0.421
same,relative viability,[24]; first compound 2.53 µM,0.52
same,relative viability,[24]; first compound 8 µM,0.454
same,relative viability,[25]; first compound 0.253 µM,0.328
same,relative viability,[25]; first compound 0.8 µM,0.363
same,relative viability,[25]; first compound 2.53 µM,0.308
same,relative viability,[25]; first compound 8 µM,0.285
Nc1cccc2c1CN(C1CCC(=O)NC1=O)C2=O (stereo unspecified) [Lenalidomide] + COc1cccc2cc(-c3nc([C@H]4CC[C@H](C(=O)O)CC4)n4ncnc(N)c34)[nH]c12 [OSI-027] (partner 0.5 µM),relative viability,[1]; first compound 0.253 µM,0.781
same,relative viability,[1]; first compound 0.8 µM,0.776
same,relative viability,[1]; first compound 2.53 µM,0.892
same,relative viability,[1]; first compound 8 µM,0.787
same,relative viability,[2]; first compound 0.253 µM,0.724
same,relative viability,[2]; first compound 0.8 µM,0.734
same,relative viability,[2]; first compound 2.53 µM,0.696
same,relative viability,[2]; first compound 8 µM,0.702
same,relative viability,[3]; first compound 0.253 µM,0.38
same,relative viability,[3]; first compound 0.8 µM,0.349
same,relative viability,[3]; first compound 2.53 µM,0.393
same,relative viability,[3]; first compound 8 µM,0.344
same,relative viability,[4]; first compound 0.253 µM,0.633
same,relative viability,[4]; first compound 0.8 µM,0.65
same,relative viability,[4]; first compound 2.53 µM,0.55
same,relative viability,[4]; first compound 8 µM,0.516
same,relative viability,[5]; first compound 0.253 µM,0.612
same,relative viability,[5]; first compound 2.53 µM,0.564
same,relative viability,[5]; first compound 8 µM,0.534
same,relative viability,[6]; first compound 0.253 µM,0.705
same,relative viability,[6]; first compound 0.8 µM,0.578
same,relative viability,[6]; first compound 2.53 µM,0.826
same,relative viability,[6]; first compound 8 µM,0.689
same,relative viability,[7]; first compound 0.253 µM,0.807
same,relative viability,[7]; first compound 0.8 µM,0.74
same,relative viability,[7]; first compound 2.53 µM,0.849
same,relative viability,[7]; first compound 8 µM,0.831
same,relative viability,[8]; first compound 0.253 µM,0.856
same,relative viability,[8]; first compound 2.53 µM,0.912
same,relative viability,[8]; first compound 8 µM,0.887
same,relative viability,[9]; first compound 0.253 µM,0.544
same,relative viability,[9]; first compound 0.8 µM,0.454
same,relative viability,[9]; first compound 2.53 µM,0.661
same,relative viability,[9]; first compound 8 µM,0.563
same,relative viability,[10]; first compound 0.253 µM,0.449
same,relative viability,[10]; first compound 2.53 µM,0.436
same,relative viability,[10]; first compound 8 µM,0.362
same,relative viability,[11]; first compound 0.253 µM,0.757
same,relative viability,[11]; first compound 0.8 µM,0.72
same,relative viability,[11]; first compound 2.53 µM,0.79
same,relative viability,[11]; first compound 8 µM,0.67
same,relative viability,[12]; first compound 0.253 µM,0.682
same,relative viability,[12]; first compound 0.8 µM,0.709
same,relative viability,[12]; first compound 2.53 µM,0.722
same,relative viability,[12]; first compound 8 µM,0.756
same,relative viability,[13]; first compound 0.253 µM,0.61
same,relative viability,[13]; first compound 0.8 µM,0.653
same,relative viability,[13]; first compound 2.53 µM,0.646
same,relative viability,[13]; first compound 8 µM,0.615
same,relative viability,[14]; first compound 0.253 µM,0.66
same,relative viability,[14]; first compound 0.8 µM,0.609
same,relative viability,[14]; first compound 2.53 µM,0.663
same,relative viability,[14]; first compound 8 µM,0.593
same,relative viability,[15]; first compound 0.253 µM,0.581
same,relative viability,[15]; first compound 0.8 µM,0.499
same,relative viability,[15]; first compound 2.53 µM,0.742
same,relative viability,[15]; first compound 8 µM,0.502
same,relative viability,[16]; first compound 0.253 µM,0.586
same,relative viability,[16]; first compound 0.8 µM,0.706
same,relative viability,[16]; first compound 2.53 µM,0.588
same,relative viability,[16]; first compound 8 µM,0.596
same,relative viability,[17]; first compound 0.253 µM,0.97
same,relative viability,[17]; first compound 0.8 µM,1.21
same,relative viability,[17]; first compound 2.53 µM,0.914
same,relative viability,[17]; first compound 8 µM,0.898
same,relative viability,[18]; first compound 0.253 µM,0.284
same,relative viability,[18]; first compound 0.8 µM,0.25
same,relative viability,[18]; first compound 2.53 µM,0.311
same,relative viability,[18]; first compound 8 µM,0.281
same,relative viability,[19]; first compound 0.253 µM,0.754
same,relative viability,[19]; first compound 2.53 µM,0.696
same,relative viability,[19]; first compound 8 µM,0.596
same,relative viability,[20]; first compound 0.253 µM,0.722
same,relative viability,[20]; first compound 0.8 µM,0.689
same,relative viability,[20]; first compound 2.53 µM,0.849
same,relative viability,[20]; first compound 8 µM,0.729
same,relative viability,[21]; first compound 0.253 µM,0.399
same,relative viability,[21]; first compound 0.8 µM,0.34
same,relative viability,[21]; first compound 2.53 µM,0.459
same,relative viability,[21]; first compound 8 µM,0.383
same,relative viability,[22]; first compound 0.253 µM,0.57
same,relative viability,[22]; first compound 0.8 µM,0.615
same,relative viability,[22]; first compound 2.53 µM,0.643
same,relative viability,[22]; first compound 8 µM,0.644
same,relative viability,[23]; first compound 0.253 µM,0.573
same,relative viability,[23]; first compound 0.8 µM,0.712
same,relative viability,[23]; first compound 2.53 µM,0.792
same,relative viability,[23]; first compound 8 µM,0.565
same,relative viability,[24]; first compound 0.253 µM,0.559
same,relative viability,[24]; first compound 2.53 µM,0.742
same,relative viability,[24]; first compound 8 µM,0.532
same,relative viability,[25]; first compound 0.253 µM,0.456
same,relative viability,[25]; first compound 0.8 µM,0.576
same,relative viability,[25]; first compound 2.53 µM,0.53
same,relative viability,[25]; first compound 8 µM,0.464
